# Data reported in patent US20070219186A1, “Pyrazolo[1,5-A]pyrimidine derivatives and methods of use thereof” (priority 2006, published 2007).
# Where two headings read alike, the source gives them in different places.
# Target: T1, human B-Raf (Homo sapiens, UniProt P15056)
# T1 construct: Flag; GST; made in house; host or cells: Sf9 insect cells (B-Raf); E. coli (MEK1-GST)
# Assay: B-Raf Kinase to MEK1 ELISA
# Type: biochemical
# Conditions: for IC50: median, cpd concentrations from 10 μM to 30 nM in half log dilutions, read-out: Median IC50; for inhibition at 10 µM: read-out: % Inhib./10 uM
# Summary of the method: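 Flag/GST-tagged human B-Raf (Sf9, ~20 ng/point) phosphorylates non-active GST-MEK1 (50 nM final) with ATP and MgCl2 in MOPS pH 7.2 buffer, 60 min at RT. Product is captured on anti-GST plates; MEK1 pSer217/221 is read by phospho-antibody plus europium conjugate (DELFIA).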
# T1 sequence (P15056 whole entry): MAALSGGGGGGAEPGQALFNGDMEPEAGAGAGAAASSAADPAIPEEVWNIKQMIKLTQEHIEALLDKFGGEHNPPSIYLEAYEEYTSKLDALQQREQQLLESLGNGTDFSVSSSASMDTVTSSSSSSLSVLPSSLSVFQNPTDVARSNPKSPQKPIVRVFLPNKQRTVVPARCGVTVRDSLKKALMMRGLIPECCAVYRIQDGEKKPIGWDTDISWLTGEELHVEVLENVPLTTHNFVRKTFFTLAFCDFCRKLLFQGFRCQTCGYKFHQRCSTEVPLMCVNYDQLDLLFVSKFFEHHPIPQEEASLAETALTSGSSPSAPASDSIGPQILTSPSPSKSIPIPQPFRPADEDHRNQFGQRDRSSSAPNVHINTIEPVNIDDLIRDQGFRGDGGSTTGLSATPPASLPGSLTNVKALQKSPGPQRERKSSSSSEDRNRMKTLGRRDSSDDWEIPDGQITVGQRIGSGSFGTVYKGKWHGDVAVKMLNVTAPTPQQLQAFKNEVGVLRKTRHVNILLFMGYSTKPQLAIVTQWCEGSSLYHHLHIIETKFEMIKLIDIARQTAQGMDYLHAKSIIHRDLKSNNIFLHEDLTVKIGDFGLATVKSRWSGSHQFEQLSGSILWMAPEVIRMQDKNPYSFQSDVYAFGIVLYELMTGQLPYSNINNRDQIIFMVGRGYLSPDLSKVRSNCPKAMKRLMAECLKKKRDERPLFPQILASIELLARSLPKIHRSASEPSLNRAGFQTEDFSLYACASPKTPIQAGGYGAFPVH
SMILES,IC50 [nM],inhibition at 10 µM [%],"inhibition at 10 µM (single point assay, 10 uM) [%]"
"CCOC(=O)c1cnn2c(-c3cccc(NC(=O)CC(C)(C)C)c3)ccnc12 [Example 225, ethyl7-{3-[(3,3-dimethylbutanoyl)amino]phenyl}pyrazolo[1,5-a]pyrimidine-3-carboxylate]",> 10000,7,
"CCOC(=O)c1cnn2c(-c3cccc(NC(=O)CC(C)CC(C)(C)C)c3)ccnc12 (stereo not shown) [Example 226, ethyl7-{3-[(3,5,5-trimethylhexanoyl)amino]phenyl}pyrazolo[1,5-a]pyrimidine-3-carboxylate]",> 10000,43,
"CCOC(=O)c1cnn2c(-c3cccc(NC(=O)c4cc(C(C)(C)C)cc(C(C)(C)C)c4)c3)ccnc12 [Example 227, ethyl7-{3-[(3,5-di-tert-butylbenzoyl)amino]phenyl}pyrazolo[1,5-a]pyrimidine-3-carboxylate]",1600,54,
"CCOC(=O)c1cnn2c(-c3cccc(NC(=O)c4cc(Cl)ccc4Br)c3)ccnc12 [Example 228, ethyl7-{3-[(2-bromo-5-chlorobenzoyl)amino]phenyl}pyrazolo[1,5-a]pyrimidine-3-carboxylate]",> 10000,7,
"COCC(=O)Nc1ccc(-c2cnn3c(-c4cccc(NC(=O)c5cccc(C(F)(F)F)c5)c4)ccnc23)cc1 [Example 229, N-[3-(3-{4-[(methoxyacetyl)amino]phenyl}pyrazolo[1,5-a]pyrimidin-7-yl)phenyl]-3-(trifluoromethyl)benzamide]",118,83,
"CN(C)CC(=O)Nc1ccc(-c2cnn3c(-c4cccc(NC(=O)c5cccc(C(F)(F)F)c5)c4)ccnc23)cc1 [Example 230, N-[3-(3-{4-[(N,N-dimethylglycyl)amino]phenyl}pyrazolo[1,5-a]pyrimidin-7-yl)phenyl]-3-(trifluoromethyl)benzamide]",49,,93
"COCCC(=O)Nc1ccc(-c2cnn3c(-c4cccc(NC(=O)c5cccc(C(F)(F)F)c5)c4)ccnc23)cc1 [Example 231, N-[3-(3-{4-[(3-methoxypropanoyl)amino]phenyl}pyrazolo[1,5-a]pyrimidin-7-yl)phenyl]-3-(trifluoromethyl)benzamide]",246,80,
"O=C(Cc1c[nH]cn1)Nc1ccc(-c2cnn3c(-c4cccc(NC(=O)c5cccc(C(F)(F)F)c5)c4)ccnc23)cc1 [Example 232, N-[3-(3-{4-[(1H-imidazol-4-ylacetyl)amino]phenyl}pyrazolo[1,5-a]pyrimidin-7-yl)phenyl]-3-(trifluoromethyl)benzamide]",174,99,
"O=C(Cc1nnn[nH]1)Nc1ccc(-c2cnn3c(-c4cccc(NC(=O)c5cccc(C(F)(F)F)c5)c4)ccnc23)cc1 [Example 233, N-[3-(3-{4-[(1H-tetrazol-5-ylacetyl)amino]phenyl}pyrazolo[1,5-a]pyrimidin-7-yl)phenyl]-3-(trifluoromethyl)benzamide]",1000,96,
"CN(C)CCCC(=O)Nc1ccc(-c2cnn3c(-c4cccc(NC(=O)c5cccc(C(F)(F)F)c5)c4)ccnc23)cc1 [Example 234, N-{3-[3-(4-{[4-(dimethylamino)butanoyl]amino}phenyl)pyrazolo[1,5-a]pyrimidin-7-yl]phenyl}-3-(trifluoromethyl)benzamide]",19,96,
"COCCOCC(=O)Nc1ccc(-c2cnn3c(-c4cccc(NC(=O)c5cccc(C(F)(F)F)c5)c4)ccnc23)cc1 [Example 235, N-{3-[3-(4-{[(2-methoxyethoxy)acetyl]amino}phenyl)pyrazolo[1,5-a]pyrimidin-7-yl]phenyl}-3-(trifluoromethyl)benzamide]",169,84,
"Cn1cccc1C(=O)Nc1cccc(-c2ccnc3cc(-c4ccncc4)nn23)c1 [Example 236, 1-methyl-N-[3-(2-pyridin-4-ylpyrazolo[1,5-a]pyrimidin-7-yl)phenyl]-1H-pyrrole-2-carboxamide]",,50,
"O=C(Nc1cccc(-c2ccnc3cc(-c4ccncc4)nn23)c1)c1nccc2ccccc12 [Example 237, N-[3-(2-pyridin-4-ylpyrazolo[1,5-a]pyrimidin-7-yl)phenyl]isoquinoline-1-carboxamide]",> 10000,44,
"Cn1c(C(=O)Nc2cccc(-c3ccnc4cc(-c5ccncc5)nn34)c2)cc2ccccc21 [Example 238, 1-methyl-N-[3-(2-pyridin-4-ylpyrazolo[1,5-a]pyrimidin-7-yl)phenyl]-1H-indole-2-carboxamide]",> 10000,50,
"O=C(Nc1cccc(-c2ccnc3cc(-c4ccncc4)nn23)c1)c1ccc(Br)s1 [Example 239, 5-bromo-N-[3-(2-pyridin-4-ylpyrazolo[1,5-a]pyrimidin-7-yl)phenyl]thiophene-2-carboxamide]",200,86,
"CC(C)(C)CC(=O)Nc1cccc(-c2ccnc3cc(-c4ccncc4)nn23)c1 [Example 240, 3,3-dimethyl-N-[3-(2-pyridin-4-ylpyrazolo[1,5-a]pyrimidin-7-yl)phenyl]butanamide]",> 10000,10,
"O=C(Nc1cccc(-c2ccnc3cc(-c4ccncc4)nn23)c1)c1cc(Cl)ccc1Br [Example 241, 2-bromo-5-chloro-N-[3-(2-pyridin-4-ylpyrazolo[1,5-a]pyrimidin-7-yl)phenyl]benzamide]",> 10000,34,
"CCOC(=O)c1cnn2c(-c3cccc(NC(=O)c4cccc(C)c4)c3)ccnc12 [Example 242, ethyl 7-{3-[(3-methylbenzoyl)amino]phenyl}pyrazolo[1,5-a]pyrimidine-3-carboxylate]",> 10000,20,
"CCOC(=O)c1cnn2c(-c3cccc(NC(=O)c4cc(C(C)(C)C)nn4C)c3)ccnc12 [Example 243, ethyl7-(3-{[(3-tert-butyl-1-methyl-1H-pyrazol-5-yl)carbonyl]amino}phenyl)pyrazolo[1,5-a]pyrimidine-3-carboxylate]",> 10000,18,
"CCOC(=O)c1cnn2c(-c3cccc(NC(=O)Nc4nc5ccc(OC)cc5s4)c3)ccnc12 [Example 244, ethyl7-[3-({[(6-methoxy-1,3-benzothiazol-2-yl)amino]carbonyl}amino)phenyl]pyrazolo[1,5-a]pyrimidine-3-carboxylate]",> 10000,24,
"CCOC(=O)c1cnn2c(-c3cccc(NC(=O)Nc4ccc5c(c4)OCO5)c3)ccnc12 [Example 245, ethyl7-(3-{[(1,3-benzodioxol-5-ylamino)carbonyl]amino}phenyl)pyrazolo[1,5-a]pyrimidine-3-carboxylate]",> 10000,18,
"CCOC(=O)c1cnn2c(-c3cccc(NC(=O)Nc4nc5ccc(Cl)cc5s4)c3)ccnc12 [Example 246, ethyl7-[3-({[(6-chloro-1,3-benzothiazol-2-yl)amino]carbonyl}amino)phenyl]pyrazolo[1,5-a]pyrimidine-3-carboxylate]",> 10000,34,
"CCOC(=O)c1cnn2c(-c3cccc(NC(=O)Nc4cc(C)no4)c3)ccnc12 [Example 247, ethyl7-[3-({[(3-methylisoxazol-5-yl)amino]carbonyl}amino)phenyl]pyrazolo[1,5-a]pyrimidine-3-carboxylate]",> 10000,15,
"CCOC(=O)c1cnn2c(-c3cccc(NC(=O)Nc4cc(C)on4)c3)ccnc12 [Example 248, ethyl7-[3-({[(5-methylisoxazol-3-yl)amino]carbonyl}amino)phenyl]pyrazolo[1,5-a]pyrimidine-3-carboxylate]",> 10000,10,
"O=C1CN(c2cc3nccc(-c4cccc(NC(=O)c5cccc(C(F)(F)F)c5)c4)n3n2)CCN1 [Example 249, N-{3-[2-(3-oxopiperazin-1-yl)pyrazolo[1,5-a]pyrimidin-7-yl]phenyl}-3-(trifluoromethyl)benzamide]",471,76,
"O=C(Nc1cccc(-c2ccnc3cc(O)nn23)c1)c1cccc(C(F)(F)F)c1 [Example 250, N-[3-(2-hydroxypyrazolo[1,5-a]pyrimidin-7-yl)phenyl]-3-(trifluoromethyl)benzamide]",> 10000,16,
"O=C1CCN(c2cc3nccc(-c4cccc(NC(=O)c5cccc(C(F)(F)F)c5)c4)n3n2)CC1 [Example 251, N-{3-[2-(4-oxopiperidin-1-yl)pyrazolo[1,5-a]pyrimidin-7-yl]phenyl}-3-(trifluoromethyl)benzamide]",,42,
"COCC(=O)Nc1cccc(-c2cnn3c(-c4cccc(NC(=O)c5cccc(C(F)(F)F)c5)c4)ccnc23)c1 [Example 252, N-[3-(3-{3-[(methoxyacetyl)amino]phenyl}pyrazolo[1,5-a]pyrimidin-7-yl)phenyl]-3-(trifluoromethyl)benzamide]",82,79,
"CN(C)CC(=O)Nc1cccc(-c2cnn3c(-c4cccc(NC(=O)c5cccc(C(F)(F)F)c5)c4)ccnc23)c1 [Example 253, N-[3-(3-{3-[(N,N-dimethylglycyl)amino]phenyl}pyrazolo[1,5-a]pyrimidin-7-yl)phenyl]-3-(trifluoromethyl)benzamide]",40,97,
"COCCC(=O)Nc1cccc(-c2cnn3c(-c4cccc(NC(=O)c5cccc(C(F)(F)F)c5)c4)ccnc23)c1 [Example 254, N-[3-(3-{3-[(3-methoxypropanoyl)amino]phenyl}pyrazolo[1,5-a]pyrimidin-7-yl)phenyl]-3-(trifluoromethyl)benzamide]",90,82,
